Measured values as given in US8304419B2, “Chemical compounds” (priority 2007, dated 2012).
Structures can show the parent of a compound that is named as a salt.

What follows are compounds tested on HIV wild type (WTRVA) (assay: HeLa cell assay, wild type virus (WTRVA)). Details: Human immunodeficiency virus 1, HeLa, HeLa cell assay; read-out: IC50 against WTRVA.
Type: cell-based, HIV-1
Set-up: scale not given here
For `Cc1nc(Cl)c(C(=O)NCc2cc(C#N)c(Cl)c(Oc3cc(Cl)cc(C#N)c3)c2F)[nH]1` [Example 304, 4-chloro-N-({4-chloro-3-[(3-chloro-5-cyanophenyl)oxy]-5-cyano-2-fluorophenyl}methyl)-2-methyl-1H-imidazole-5-carboxamide trifluoroacetate], the IC50 was < 10 nM. With `CN(C)Cc1cc(C#N)cc(Oc2c(Cl)ccc(CNC(=O)c3[nH]cnc3Cl)c2F)c1` [Example 311, 4-chloro-N-{[4-chloro-3-({3-cyano-5-[(dimethylamino)methyl]phenyl}oxy)-2-fluorophenyl]methyl}-1H-imidazole-5-carboxamide trifluoroacetate] the IC50 was < 10 nM. `CCNc1nc(Cl)c(C(=O)NCc2ccc(Cl)c(Oc3cc(Cl)cc(C#N)c3)c2F)[nH]1` [Example 362, 4-chloro-N-({4-chloro-3-[(3-chloro-5-cyanophenyl)oxy]-2-fluorophenyl}methyl)-2-(ethylamino)-1H-imidazole-5-carboxamide trifluoroacetate] was tested, and the IC50 was < 10 nM. In the case of `CCc1ccc(CNC(=O)c2[nH]c(C)nc2Cl)c(F)c1Oc1cc(Cl)cc(C#N)c1` [Example 249, 4-chloro-N-({3-[(3-chloro-5-cyanophenyl)oxy]-4-ethyl-2-fluorophenyl}methyl)-2-methyl-1H-imidazole-5-carboxamide], the IC50 is reported as < 10 nM. With `N#Cc1cc(Cl)cc(Oc2c(C(F)F)ccc(CNC(=O)c3[nH]cnc3Cl)c2F)c1` [Example 252, 4-chloro-N-{[3-[(3-chloro-5-cyanophenyl)oxy]-4-(difluoromethyl)-2-fluorophenyl]methyl}-1H-imidazole-5-carboxamide] the IC50 was < 10 nM. With `N#Cc1cc(Oc2c(Cl)ccc(CNC(=O)c3[nH]cnc3Cl)c2F)cc(C2CC2)c1` [Example 152, 4-chloro-N-({4-chloro-3-[(3-cyano-5-cyclopropylphenyl)oxy]-2-fluorophenyl}methyl)-1H-imidazole-5-carboxamide] the IC50 was < 10 nM. In the case of `Cc1nc(Br)c(C(=O)NCc2cc(Br)c(Br)c(Oc3cc(Cl)cc(C#N)c3)c2F)[nH]1` [Example 234, 4-bromo-N-({4,5-dibromo-3-[(3-chloro-5-cyanophenyl)oxy]-2-fluorophenyl}methyl)-2-methyl-1H-imidazole-5-carboxamide trifluoroacetate], the IC50 is reported as < 10 nM. For `CC(C)c1cc(C#N)cc(Oc2c(Cl)ccc(CNC(=O)c3[nH]cnc3Cl)c2F)c1` [Example 159, 4-chloro-N-[(4-chloro-3-{[3-cyano-5-(1-methylethyl)phenyl]oxy}-2-fluorophenyl)methyl]-1H-imidazole-5-carboxamide], the IC50 was < 10 nM.

Same assay, conditions: Human immunodeficiency virus 1, HeLa, HeLa-CD4-LTR-β-gal cells, wild type virus; read-out: WTRVA activity level
Compound `N#Cc1cc(Cl)cc(Oc2c(Cl)ccc(CNC(=O)c3cc4cccc([N+](=O)[O-])c4[nH]3)c2F)c1` [Example 37, N-({4-chloro-3-[(3-chloro-5-cyanophenyl)oxy]-2-fluorophenyl}methyl)-7-nitro-1H-indole-2-carboxamide] has an IC50 of 10 to 1000 nM. With `N#Cc1cc(Cl)cc(Oc2c(Cl)ccc(CNC(=O)c3[nH]c(C4CC4)nc3Cl)c2F)c1` [Example 136, 4-chloro-N-({4-chloro-3-[(3-chloro-5-cyanophenyl)oxy]-2-fluorophenyl}methyl)-2-cyclopropyl-1H-imidazole-5-carboxamide trifluoroacetate] the IC50 was < 10 nM. In the case of `N#Cc1cc(Cl)cc(Oc2c(Cl)ccc(CNC(=O)c3cn[nH]c3)c2F)c1` [Example 100, N-({4-chloro-3-[(3-chloro-5-cyanophenyl)oxy]-2-fluorophenyl}methyl)-1H-pyrazole-4-carboxamide trifluoroacetate], the IC50 is reported as < 10 nM. With `N#Cc1cc(Cl)cc(Oc2c(Cl)ccc(CNC(=O)c3cc4cc(NC(=O)c5cccnc5)ccc4[nH]3)c2F)c1` [Example 115, N-({4-chloro-3-[(3-chloro-5-cyanophenyl)oxy]-2-fluorophenyl}methyl)-5-[(3-pyridinylcarbonyl)amino]-1H-indole-2-carboxamide] the IC50 was < 10 nM. In the case of `CS(=O)(=O)c1ccc(C(=O)NCc2ccc(Cl)c(Oc3cc(Cl)cc(C#N)c3)c2F)c(Cl)c1` [Example 16, 2-chloro-N-({4-chloro-3-[(3-chloro-5-cyanophenyl)oxy]-2-fluorophenyl}methyl)-4-(methylsulfonyl)benzamide], the IC50 is reported as 10 to 1000 nM. `CN1CCCC1CCOc1ccc2[nH]c(C(=O)NCc3ccc(Cl)c(Oc4cc(Cl)cc(C#N)c4)c3F)cc2c1` (centres unmarked) [Example 104, N-({4-chloro-3-[(3-chloro-5-cyanophenyl)oxy]-2-fluorophenyl}methyl)-5-{[2-(1-methyl-2-pyrrolidinyl)ethyl]oxy}-1H-indole-2-carboxamide] was tested, and the IC50 was < 10 nM. `Cc1ccc2[nH]c(C(=O)NCc3ccc(Cl)c(Oc4cc(Cl)cc(C#N)c4)c3F)c(C)c2c1` [Example 52, N-({4-chloro-3-[(3-chloro-5-cyanophenyl)oxy]-2-fluorophenyl}methyl)-3,5-dimethyl-1H-indole-2-carboxamide trifluoroacetate] gave an IC50 of 10 to 1000 nM. Compound `N#Cc1cc(Cl)cc(Oc2c(Cl)ccc(CNC(=O)c3cc4ccccc4o3)c2F)c1` [Example 47, N-({4-chloro-3-[(3-chloro-5-cyanophenyl)oxy]-2-fluorophenyl}methyl)-1-benzofuran-2-carboxamide trifluoroacetate] has an IC50 of 10 to 1000 nM. `N#Cc1cc(Cl)cc(Oc2c(Cl)ccc(CNC(=O)c3cc4cc(NC(=O)CCN)ccc4[nH]3)c2F)c1` [Example 116, 5-(β-alanylamino)-N-({4-chloro-3-[(3-chloro-5-cyanophenyl)oxy]-2-fluorophenyl}methyl)-1H-indole-2-carboxamide] was tested, and the IC50 was < 10 nM. In the case of `N#Cc1cc(Cl)cc(Oc2c(Cl)ccc(CNC(=O)c3cc4cc(Cl)ccc4s3)c2F)c1` [Example 51, 5-chloro-N-({4-chloro-3-[(3-chloro-5-cyanophenyl)oxy]-2-fluorophenyl}methyl)-1-benzothiophene-2-carboxamide trifluoroacetate], the IC50 is reported as > 1000 nM. In the case of `N#Cc1cc(Cl)cc(Oc2c(Cl)ccc(CNC(=O)c3cc4c5c(ccc4[nH]3)N(C(N)=O)CC5)c2F)c1` [Example 44, N^2-({4-chloro-3-[(3-chloro-5-cyanophenyl)oxy]-2-fluorophenyl}methyl)-7,8-dihydropyrrolo[3,2-e]indole-2,6(3H)-dicarboxamide], the IC50 is reported as < 10 nM. `N#Cc1cc(Cl)cc(Oc2c(Cl)ccc(CNC(=O)c3cc4ccc([N+](=O)[O-])cc4[nH]3)c2F)c1` [Example 31, N-({4-chloro-3-[(3-chloro-5-cyanophenyl)oxy]-2-fluorophenyl}methyl)-6-nitro-1H-indole-2-carboxamide] gave an IC50 of 10 to 1000 nM. In the case of `Cc1[nH]c(C(=O)NCc2ccc(Cl)c(Oc3cc(Cl)cc(C#N)c3)c2F)c(C)c1C#N` [Example 71, N-({4-chloro-3-[(3-chloro-5-cyanophenyl)oxy]-2-fluorophenyl}methyl)-4-cyano-3,5-dimethyl-1H-pyrrole-2-carboxamide trifluoroacetate], the IC50 is reported as < 10 nM. `N#Cc1cc(Cl)cc(Oc2c(Cl)ccc(CNC(=O)c3cc4cc(OC(F)(F)F)ccc4[nH]3)c2F)c1` [Example 27, N-({4-chloro-3-[(3-chloro-5-cyanophenyl)oxy]-2-fluorophenyl}methyl)-5-[(trifluoromethyl)oxy]-1H-indole-2-carboxamide] gave an IC50 of 10 to 1000 nM. For `COc1ccc2c(C(=O)NCc3ccc(Cl)c(Oc4cc(Cl)cc(C#N)c4)c3F)c[nH]c2c1` [Example 18, N-({4-chloro-3-[(3-chloro-5-cyanophenyl)oxy]-2-fluorophenyl}methyl)-6-(methyloxy)-1H-indole-3-carboxamide], the IC50 was 10 to 1000 nM. `N#Cc1cc(Cl)cc(Oc2c(Cl)ccc(CNC(=O)c3cc4cc(F)ccc4[nH]3)c2F)c1` [Example 41, N-({4-chloro-3-[(3-chloro-5-cyanophenyl)oxy]-2-fluorophenyl}methyl)-5-fluoro-1H-indole-2-carboxamide] showed an IC50 of 10 to 1000 nM. For `COc1ccc(C(=O)NCc2ccc(Cl)c(Oc3cc(Cl)cc(C#N)c3)c2)c(C)c1` [Example 2, N-({4-chloro-3-[(3-chloro-5-cyanophenyl)oxy]phenyl}methyl)-2-methyl-4-(methyloxy)benzamide], the IC50 was > 1000 nM. `Cn1cnc(C(=O)NCc2ccc(Cl)c(Oc3cc(Cl)cc(C#N)c3)c2F)c1` [Example 64, N-({4-chloro-3-[(3-chloro-5-cyanophenyl)oxy]-2-fluorophenyl}methyl)-1-methyl-1H-imidazole-4-carboxamide trifluoroacetate] was tested, and the IC50 was 10 to 1000 nM. For `Cc1c(C(=O)NCc2ccc(Cl)c(Oc3cc(Cl)cc(C#N)c3)c2F)oc2ccccc12` [Example 48, N-({4-chloro-3-[(3-chloro-5-cyanophenyl)oxy]-2-fluorophenyl}methyl)-3-methyl-1-benzofuran-2-carboxamide trifluoroacetate], the IC50 was 10 to 1000 nM. With `COc1cccc2[nH]c(C(=O)NCc3ccc(Cl)c(Oc4cc(Cl)cc(C#N)c4)c3F)cc12` [Example 34, N-({4-chloro-3-[(3-chloro-5-cyanophenyl)oxy]-2-fluorophenyl}methyl)-4-(methyloxy)-1H-indole-2-carboxamide] the IC50 was < 10 nM. `COc1ccc2[nH]c(C(=O)NCc3ccc(Cl)c(Oc4cc(Cl)cc(C#N)c4)c3F)c(NC(C)=O)c2c1` [Example 56, 3-(acetylamino)-N-({4-chloro-3-[(3-chloro-5-cyanophenyl)oxy]-2-fluorophenyl}methyl)-5-(methyloxy)-1H-indole-2-carboxamide trifluoroacetate] showed an IC50 of 10 to 1000 nM. Work on `CSc1ncc(C(=O)NCc2ccc(Cl)c(Oc3cc(Cl)cc(C#N)c3)c2F)[nH]1` [Example 66, N-({4-chloro-3-[(3-chloro-5-cyanophenyl)oxy]-2-fluorophenyl}methyl)-2-(methylthio)-1H-imidazole-4-carboxamide trifluoroacetate] yielded an IC50 of 10 to 1000 nM. In the case of `N#Cc1cc(Cl)cc(Oc2c(Cl)ccc(CNC(=O)c3cc4cc(OCCN5CCOCC5)ccc4[nH]3)c2F)c1` [Example 103, N-({4-chloro-3-[(3-chloro-5-cyanophenyl)oxy]-2-fluorophenyl}methyl)-5-{[2-(4-morpholinyl)ethyl]oxy}-1H-indole-2-carboxamide], the IC50 is reported as < 10 nM. With `N#Cc1cc(Cl)cc(Oc2cc(CNC(=O)c3ccc(S(N)(=O)=O)cc3Cl)ccc2Cl)c1` [Example 4, 4-(aminosulfonyl)-2-chloro-N-({4-chloro-3-[(3-chloro-5-cyanophenyl)oxy]phenyl}methyl)benzamide trifluoroacetate] the IC50 was 10 to 1000 nM.
